Assay results reported in patent US8895756B2, “Bendamustine pharmaceutical compositions” (priority 2005, dated 2014).
Like-named read-outs stand apart in the source and are kept apart here.

Experiments:
[1] = HPLC stability of bendamustine in TBA 20% (v/v) with and without mannitol over 24 hours; assay type: physicochemical
Description: FIGS. 3 and 4 show the amount of degradation of bendamustine as measured by HP1 and dimer formation quantified by HPLC (as described herein). HP1 and dimer formation increased as the amount of alcohol concentration decreased regardless of the alcohol. This increase in impurities occurred with an anticipated time dependence (see Tables 3-9).

[2] = physchem; settings: 5 °C
[3] = for Bendamustine solubility: 5° C.
[4] = reconstituted with 40 mL Sterile Water for Injection, cited from earlier work
[5] = 10% (v/v) methanol in water with 25.5 mg/mL mannitol, aqueous with cosolvent or surfactant or cyclodextrin
[6] = alcohol/water solution with mannitol 25.5 mg/mL, aqueous with cosolvent or surfactant or cyclodextrin
[7] = alcohol/water solution with mannitol 25.5 mg/mL, aqueous with cosolvent or surfactant or cyclodextrin, thermodynamic from solid
[8] = alcohol/water solution with mannitol, aqueous with cosolvent or surfactant or cyclodextrin
[9] = alcohol/water solution with mannitol, aqueous with cosolvent or surfactant or cyclodextrin, thermodynamic from solid
[10] = alcohol/water solution with mannitol, water, thermodynamic from solid
[11] = water with mannitol 25.5 mg/mL, water, thermodynamic from solid

In the case of `Cl.Cn1c(CCCC(=O)O)nc2cc(N(CCCl)CCCl)ccc21` [bendamustine, 4-{5-[Bis(2-chloroethyl)amino]-1-methyl-2-benzimidazolyl}butyric acid], the “Purity (% Area)” value ([1]; TBA 20% (v/v) with Mannitol, 0 hours, reverse phase HPLC) is reported as 99.59 % Area, the “Purity (% Area)” value ([1]; TBA 20% (v/v) with Mannitol, 24 hours @ 5° C., reverse phase HPLC) is reported as 99.35 % Area and the “Purity (% Area)” value ([1]; TBA 20% (v/v) without Mannitol, 0 hours, normal phase HPLC) is reported as 100.0 % Area. The “Purity (% Area)” value ([1]; TBA 20% (v/v) without Mannitol, 24 hours @ 5° C., normal phase HPLC) was 98.80 % Area, the solubility at 0 h [2, 5] was greater than 15 mg/mL and the solubility at 3 h [2, 5] was greater than 15 mg/mL. The solubility at 6 h [2, 5] was greater than 15 mg/mL, the solubility at 0 h [2, 6] was greater than 15 mg/mL and the solubility at 3 h [2, 6] was greater than 15 mg/mL. It also gave a solubility at 6 h [2, 6] greater than 15 mg/mL, a solubility at 24 h [2, 6] greater than 15 mg/mL and a solubility at 0 h [2, 7] greater than 15 mg/mL. For the same compound, the solubility at 3 h [2, 7] was greater than 15 mg/mL, the solubility at 6 h [2, 7] was greater than 15 mg/mL and the solubility at 24 h [2, 7] was greater than 15 mg/mL. The solubility at 0 h [2, 8] was greater than 15 mg/mL, the solubility at 3 h [2, 8] was greater than 15 mg/mL and the solubility at 6 h [2, 8] was greater than 15 mg/mL. The solubility at 24 h [2, 8] was greater than 15 mg/mL, the solubility at 0 h [2, 9] was greater than 15 mg/mL and the solubility at 3 h [2, 9] was greater than 15 mg/mL. For the same compound, the solubility at 6 h [2, 9] was greater than 15 mg/mL, the solubility at 24 h [2, 9] was greater than 15 mg/mL and the solubility at 0 h [2, 10] was greater than 15 mg/mL. It also gave a solubility at 3 h [2, 10] greater than 15 mg/mL, a solubility at 0 h [2, 11] greater than 15 mg/mL and a solubility at 3 h [2, 11] greater than 15 mg/mL. The Bendamustine solubility ([3]; 0% (Water Only), 6 Hours) was “Precipitate”, the Bendamustine solubility ([3]; 0% (Water Only), 24 Hours) was “Precipitate” and the precipitation ([3]; 15 mg/mL bendamustine, 5% and 10% ethanol and TBA without mannitol, over 24 hours) was “did not precipitate”. For the same compound, the Bendamustine solubility ([3]; 1.9% Ethanol (v/v), 6 Hours) was “Precipitate”, the Bendamustine solubility ([3]; 1.9% Ethanol (v/v), 24 Hours) was “Precipitate” and the Bendamustine solubility ([3]; 5% Ethanol (v/v), 6 Hours) was “Precipitate”. The Bendamustine solubility ([3]; 5% Ethanol (v/v), 24 Hours) was “Precipitate”, the Bendamustine solubility ([3]; 5% Iso-propanol (v/v), 3 Hours) was “Precipitate” and the Bendamustine solubility ([3]; 5% Iso-propanol (v/v), 6 Hours) was “Precipitate”. The Bendamustine solubility ([3]; 5% Iso-propanol (v/v), 24 Hours) was “Precipitate”, the Bendamustine solubility ([3]; 5% Methanol (v/v), 6 Hours) was “Precipitate” and the Bendamustine solubility ([3]; 5% Methanol (v/v), 24 Hours) was “Precipitate”. For the same compound, the Bendamustine solubility ([3]; 5% Tert-Butanol (v/v), 24 Hours) was “Precipitate”, the Bendamustine solubility ([3]; 5% n-Propanol (v/v), 24 Hours) was “Precipitate” and the Bendamustine solubility ([3]; 10% Ethanol (v/v), 24 Hours) was “Precipitate”. For the same compound, the Bendamustine solubility ([3]; 10% Methanol (v/v), 24 Hours) was “Precipitate”, the Bendamustine solubility ([3]; 10% Tert-Butanol (v/v), 24 Hours) was “Precipitate” and the Bendamustine solubility ([3]; 20% Methanol (v/v), 24 Hours) was “Precipitate”. The Bendamustine solubility ([3]; 20% n-Butanol (v/v), 3 Hours) was 2 layers, the Bendamustine solubility ([3]; 20% n-Butanol (v/v), 6 Hours) was 2 layers and the Bendamustine solubility ([3]; 20% n-Butanol (v/v), 24 Hours) was 2 layers. For the same compound, the Bendamustine solubility ([3]; 20% n-Butanol (v/v), Zero Time) was 2 layers, the Bendamustine solubility ([3]; 30% n-Butanol (v/v), 3 Hours) was 2 layers and the Bendamustine solubility ([3]; 30% n-Butanol (v/v), 6 Hours) was 2 layers. The Bendamustine solubility ([3]; 30% n-Butanol (v/v), 24 Hours) was 2 layers, the Bendamustine solubility ([3]; 30% n-Butanol (v/v), Zero Time) was 2 layers and the “stable period after reconstitution” value ([4]; room temperature storage) was 7 h. For the same compound, the “stable period after reconstitution” value ([4]; storage at 2-8° C.) was 140 h, the saturation limit (20% (v/v) TBA, 5° C.) was 17.2 mg/mL and the “concentration of saturated solution” value (30% TBA/water, 0° C.) was 18000 µg/mL.
